Assay results reported in patent US20150231117A1 (Array BioPharma Inc., priority 2012, published 2015).

Legend:
Dose limiting toxicity = details: in vivo
Text: As such, prophylactic granulocyte colony-stimulating factory (“G-CSF”) may be administered.

AAG = target: T1, AAG; experiment: TRANSIL binding assay, AAG; set-up: species or system human
T1 construct: other: TRANSIL, PBS pH 7.4, 2 μM drug; other: not for other serum proteins such as albumin; fused on or other part: AGP immobilised on TRANSIL silica beads (ready-to-use kit)
Description: (§1) TRANSIL® Binding Methodology (www.admecell.com)—Assay Buffers: phosphate buffered saline (“PBS”), pH 7.4 (Gibco 10010) and dimethylsulfoxide (“DMSO”). Plates: Ordered from ADMEcell (Alameda, Calif.). AGP—Full Plate: TBP-0211-0096; AGP—Strip Plate: TBP-0211-1196; HSA—Full Plate: TBP-0210-0096; HSA—Strip Plate: TBP-0210-1196. Stop Solution: 100% Acetonitrile spiked with Internal Standard (0.4 μM final concentration).
(§2) Drug Dilution: Dilution of drug samples to make a final 2 μM drug concentration (1% DMSO) (used 360 μL of final diluted drug per protein testing, i.e., 720 μL to run both AAG and HSA). Brought drug up to a 10 mM stock solution in DMSO. Diluted 10 mM stock to a 200 μM (0.2 mM) stock solution (added 4 μL of 10 mM stock solution into 196 μL, of DMSO). Diluted 200 μM stock to a 20 μM stock solution (added 100 μL of 200 μM DMSO stock solution into 900 μL of PBS Buffer, pH 7.4).
(§3) Thawed the assay kit either at room temperature (approximately 3 hours) or in the refrigerator at 4° C. overnight. The plates were put in the incubator, CO2 (5%) for 30 minutes prior to addition of compound. A pre-dilution of the compounds (10-fold assay concentration) were prepared, see Drug Dilution step above. […] Test article solution (45 μL) was added to the tubes/well of the ready-to-use kit and incubated for 2 minutes. […] The concentration of the supernatant was quantified with LC/MS (API4000). […]

[1] = tested on: Patients with Relapsed or Refractory Multiple Myeloma; experiment: Clinical study in patients with relapsed or refractory multiple myeloma, analysed by baseline [AAG]; format: in vivo, human
Description: The R&D Systems, Inc. (Minneapolis, Minn.) Quantikine® Human α1-Acid Glycoprotein Immunoassay (Catalog No. DAGPOO) is a 4.5 hour solid-phase ELISA designed to measure human AAG in cell culture supemates, serum, plasma, and urine. This assay employed the quantitative sandwich enzyme immunoassay technique. […] Standards and samples are pipetted into the wells, and any AAG present is bound by the immobilized antibody. After washing away any unbound substances, an enzyme-linked polyclonal antibody specific for AAG is added to the wells. Following a wash to remove any unbound antibody-enzyme reagent, a substrate solution is added to the wells, and color develops in proportion to the amount of AAG bound in the initial step. The color development is stopped, and the intensity of the color is measured. The assay was performed as described in the package insert, except where described otherwise below.

% Fu to human plasma = format: in vitro ADME; details: human plasma (ready-to-use bead-based binding assay kit)
Description: Thawed the assay kit either at room temperature (approximately 3 hours) or in the refrigerator at 4° C. overnight. The plates were put in the incubator, CO2 (5%) for 30 minutes prior to addition of compound. A pre-dilution of the compounds (10-fold assay concentration) were prepared, see Drug Dilution step above. The drug dilutions were warmed in a 37° C. water bath prior to dosing compound into plate. Caution: Check carefully the pre-dilution for any precipitation and ensure a sufficient buffer solubility and stability of your test article. Test article solution (45 μL) was added to the tubes/well of the ready-to-use kit and incubated for 2 minutes. Mixed ten times by re-suspending the beads. Re-suspended approximately half of the total volume of the vial (total volume is 450 μL). […] The vials were spun with a swing-out centrifuge for 10 minutes at 750 g. 100 μL was carefully transferred to 96-well plate. Acetonitrile (50 μL) was added with labetalol as the internal standard (0.4 μM final concentration). The plates were sealed for analysis. The concentration of the supernatant was quantified with LC/MS (API4000). See also, Brown, Karin D. supra. The result is in Table 1. pKa value was estimated using ACD/pKa DB software. Calculations: [formula]

RPMI-8226 MM cells = experiment: Cell Titer Blue viability assay with added AAG, RPMI 8226; format: cell-based, human
Text: (§4) Kit: Cell Titer-Blue Cell Viability Assay, Promega Corp. (Madison Wis.) Catalog No. G8081

HSA = target: T2, HSA (Homo sapiens, UniProt P02768); experiment: TRANSIL binding assay, HSA; details: PBS pH 7.4, 2 μM drug
T2 construct: purchased ADMEcell (Alameda, Calif.) TBP-0210-0096 / TBP-0210-1196
T2 sequence (P02768 25-609): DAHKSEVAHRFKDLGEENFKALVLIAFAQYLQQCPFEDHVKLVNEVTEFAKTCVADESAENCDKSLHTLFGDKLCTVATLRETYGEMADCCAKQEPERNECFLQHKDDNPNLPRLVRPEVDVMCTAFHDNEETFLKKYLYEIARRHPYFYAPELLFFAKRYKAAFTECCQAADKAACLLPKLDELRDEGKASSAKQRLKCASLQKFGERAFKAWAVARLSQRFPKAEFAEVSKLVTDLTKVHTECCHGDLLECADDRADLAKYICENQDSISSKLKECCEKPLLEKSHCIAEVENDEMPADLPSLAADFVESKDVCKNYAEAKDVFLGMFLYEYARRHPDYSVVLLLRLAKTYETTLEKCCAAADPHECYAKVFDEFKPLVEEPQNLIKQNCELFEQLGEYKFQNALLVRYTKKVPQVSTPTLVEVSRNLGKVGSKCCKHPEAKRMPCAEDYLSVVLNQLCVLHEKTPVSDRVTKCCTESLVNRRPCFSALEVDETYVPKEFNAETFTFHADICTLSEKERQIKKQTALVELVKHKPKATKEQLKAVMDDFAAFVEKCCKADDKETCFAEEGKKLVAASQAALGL
Description: as §1, §2, §3

NCI H929 MM cells = experiment: 3 day Cell Titer Blue viability assay with added AAG, NCI H929; format: cell-based, human
Text: as §4

KSP = target: T3, KSP (Homo sapiens, UniProt P52732); experiment: Estimated in vitro unbound IC50
T3 sequence (P52732 1-1056): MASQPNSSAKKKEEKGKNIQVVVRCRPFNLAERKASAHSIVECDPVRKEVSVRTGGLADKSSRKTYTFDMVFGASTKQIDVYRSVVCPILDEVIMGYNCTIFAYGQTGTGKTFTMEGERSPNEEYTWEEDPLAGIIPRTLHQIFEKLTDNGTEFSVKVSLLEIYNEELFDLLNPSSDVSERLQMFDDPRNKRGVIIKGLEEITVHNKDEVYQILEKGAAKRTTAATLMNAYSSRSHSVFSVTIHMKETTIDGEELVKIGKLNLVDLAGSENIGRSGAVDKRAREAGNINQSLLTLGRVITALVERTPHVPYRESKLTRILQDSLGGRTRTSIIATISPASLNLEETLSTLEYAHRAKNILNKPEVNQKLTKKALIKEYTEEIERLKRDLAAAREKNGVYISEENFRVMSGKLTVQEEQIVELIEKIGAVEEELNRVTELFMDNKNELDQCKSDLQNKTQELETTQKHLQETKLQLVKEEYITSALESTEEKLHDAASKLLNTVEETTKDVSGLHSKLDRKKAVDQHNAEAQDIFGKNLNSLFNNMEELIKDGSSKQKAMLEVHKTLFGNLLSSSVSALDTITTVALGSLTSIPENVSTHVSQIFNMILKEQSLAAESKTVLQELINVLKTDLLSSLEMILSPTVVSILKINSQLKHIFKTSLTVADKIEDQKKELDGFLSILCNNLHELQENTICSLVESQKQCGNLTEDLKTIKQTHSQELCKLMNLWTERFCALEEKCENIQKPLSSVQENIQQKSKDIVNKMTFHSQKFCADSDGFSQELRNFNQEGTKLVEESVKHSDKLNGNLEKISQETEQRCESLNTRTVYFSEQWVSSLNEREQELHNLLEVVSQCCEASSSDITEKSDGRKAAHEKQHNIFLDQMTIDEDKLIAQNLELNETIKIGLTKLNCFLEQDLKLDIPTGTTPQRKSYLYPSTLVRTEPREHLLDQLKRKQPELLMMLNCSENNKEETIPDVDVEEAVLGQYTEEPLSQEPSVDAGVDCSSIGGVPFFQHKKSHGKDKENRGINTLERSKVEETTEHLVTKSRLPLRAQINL
Description: Model optimization was accomplished using the QRPEM engine of Phoenix 6.3 (Pharsight Corporation, St. Louis, Mo.). Model selection was based on AIC comparisons and diagnostic plots. Simulations were for a typical patient receiving Phase 2 dose of 1.5 mg/m^2 on day 1 and day 2 with varying [AAG].

[2] = Phase 2 + dex (with dexamethasone), All Patients, n=18
[3] = Phase 2 + dex (with dexamethasone), [AAG] <1.1 g/L, n=12
[4] = Phase 2 Single Agent, All Patients, n=27
[5] = Phase 2 Single Agent, [AAG] <1.1 g/L, n=21

Structure (SMILES): CON(C)C(=O)N1N=C(c2cc(F)ccc2F)S[C@@]1(CCCN)c1ccccc1.Cl [ARRY-520, (S)-2-(3-Aminopropyl)-5-(2,5-difluorophenyl)-N-methoxy-N-methyl-2-phenyl-1,3,4-thiadiazole-3(2H)-carboxamide]
- major dose limiting toxicity (DLT) (Dose limiting toxicity): neutropenia
- Kd (AAG; TRANSIL, PBS pH 7.4, 2 μM drug): 5 µM
- affinity for AAG in in vitro assays (AAG; not for other serum proteins such as albumin): low micromolar affinity
- Median Time on Study (months) ([1]; Phase 1, All Patients, n=27): 3.9 months
- ≧MR, number of patients ([1]; Phase 1, All Patients, n=27): 4
- ≧MR, rate ([1]; Phase 1, All Patients, n=27): 15%
- ≧PR, number of patients ([1]; Phase 1, All Patients, n=27): 3
- ≧PR, rate ([1]; Phase 1, All Patients, n=27): 11%
- Median Time on Study (months) ([1]; Phase 1, [AAG] <1.1 g/L, n=20): 5.2 months
- ≧MR, number of patients ([1]; Phase 1, [AAG] <1.1 g/L, n=20): 4
- ≧MR, rate ([1]; Phase 1, [AAG] <1.1 g/L, n=20): 20%
- ≧PR, number of patients ([1]; Phase 1, [AAG] <1.1 g/L, n=20): 3
- ≧PR, rate ([1]; Phase 1, [AAG] <1.1 g/L, n=20): 15%
- Median Time on Study (months) [1, 2]: 3.9 months
- ≧MR, number of patients [1, 2]: 6
- ≧MR, rate [1, 2]: 33%
- ≧PR, number of patients [1, 2]: 4
- ≧PR, rate [1, 2]: 22%
- Median Time on Study (months) [1, 3]: 6.2 months
- ≧MR, number of patients [1, 3]: 6
- ≧MR, rate [1, 3]: 50%
- ≧PR, number of patients [1, 3]: 4
- ≧PR, rate [1, 3]: 33%
- Median Time on Study (months) [1, 4]: 2.8 months
- ≧MR, number of patients [1, 4]: 6
- ≧MR, rate [1, 4]: 22%
- ≧PR, number of patients [1, 4]: 5
- ≧PR, rate [1, 4]: 19%
- Median Time on Study (months) [1, 5]: 3.4 months
- ≧MR, number of patients [1, 5]: 6
- ≧MR, rate [1, 5]: 29%
- ≧PR, number of patients [1, 5]: 5
- ≧PR, rate [1, 5]: 24%
- time to coming off study, most patients with high baseline [AAG] ([1]; baseline [AAG] greater than 1.1 g/L, FIG. 5): less than 5 months
- increase of risk for discontinuing the study ([1]; with each 1.0 g/L increase in [AAG], p<0.01): 2.5 fold
- fraction unbound at 2 min (% Fu to human plasma): 0.07
- effect of increasing AAG levels on cell sensitivity (RPMI-8226 MM cells): decrease cell sensitivity
- Kd (HSA): 147 µM
- decrease of cellular sensitivity to ARRY-520 as [AAG] increases (NCI H929 MM cells; AAG 0.5-4 mg/mL final concentration, FIG. 1): greater than 30 fold
- effect of increasing AAG levels on cell sensitivity (NCI H929 MM cells; NCI H929): decrease cell sensitivity
- IC50 (KSP): 0.000438 µM
